From the NIST ThermoML archive (doi:10.1016/j.jct.2015.04.029)

What was measured:
[1] = wn = mass fraction of the nth substance listed; conditions: for surface tension liquid-gas: Maximal bubble pressure; for mass density: 100 kPa, Liquid, Vibrating tube method
[2] = refractive index (Na D-line) (dimensionless); wn = mass fraction of the nth substance listed; conditions: 100 kPa, Liquid, Standard Abbe refractometry

CCCCn1cc[n+](C)c1.N[C@@H](CO)C(=O)[O-] [1-butyl-3-methylimidazolium L-serinate] + O
Conditions | mass density [kg/m3] | refractive index | surface tension liquid-gas [mN/m]
[1], 298.15 K, w2 = 0.00489 | 1156.16 | – | –
[1], 298.15 K, w2 = 0.00632 | 1156.21 | – | –
[1], 298.15 K, w2 = 0.00706 | – | – | 46.4
[1], 298.15 K, w2 = 0.00783 | 1156.25 | – | –
[1], 298.15 K, w2 = 0.00859 | – | – | 46.7
[1], 298.15 K, w2 = 0.00933 | 1156.29 | – | –
[1], 298.15 K, w2 = 0.01019 | – | – | 46.9
[1], 298.15 K, w2 = 0.01094 | 1156.32 | – | –
[1], 298.15 K, w2 = 0.01171 | – | – | 47.1
[1], 298.15 K, w2 = 0.01331 | – | – | 47.3
[1], 303.15 K, w2 = 0.00489 | 1152.97 | – | –
[1], 303.15 K, w2 = 0.00632 | 1153.01 | – | –
[1], 303.15 K, w2 = 0.00706 | – | – | 46.2
[1], 303.15 K, w2 = 0.00783 | 1153.06 | – | –
[1], 303.15 K, w2 = 0.00859 | – | – | 46.4
[1], 303.15 K, w2 = 0.00933 | 1153.1 | – | –
[1], 303.15 K, w2 = 0.01019 | – | – | 46.7
[1], 303.15 K, w2 = 0.01094 | 1153.15 | – | –
[1], 303.15 K, w2 = 0.01171 | – | – | 46.9
[1], 303.15 K, w2 = 0.01331 | – | – | 47.1
[1], 308.15 K, w2 = 0.00489 | 1149.77 | – | –
[1], 308.15 K, w2 = 0.00632 | 1149.82 | – | –
[1], 308.15 K, w2 = 0.00706 | – | – | 46
[1], 308.15 K, w2 = 0.00783 | 1149.86 | – | –
[1], 308.15 K, w2 = 0.00859 | – | – | 46.2
[1], 308.15 K, w2 = 0.00933 | 1149.91 | – | –
[1], 308.15 K, w2 = 0.01019 | – | – | 46.4
[1], 308.15 K, w2 = 0.01094 | 1149.97 | – | –
[1], 308.15 K, w2 = 0.01171 | – | – | 46.6
[1], 308.15 K, w2 = 0.01331 | – | – | 46.9
[1], 313.15 K, w2 = 0.00489 | 1146.61 | – | –
[1], 313.15 K, w2 = 0.00632 | 1146.67 | – | –
[1], 313.15 K, w2 = 0.00706 | – | – | 45.7
[1], 313.15 K, w2 = 0.00783 | 1146.72 | – | –
[1], 313.15 K, w2 = 0.00859 | – | – | 45.9
[1], 313.15 K, w2 = 0.00933 | 1146.76 | – | –
[1], 313.15 K, w2 = 0.01019 | – | – | 46.1
[1], 313.15 K, w2 = 0.01094 | 1146.82 | – | –
[1], 313.15 K, w2 = 0.01171 | – | – | 46.3
[1], 313.15 K, w2 = 0.01331 | – | – | 46.6
[1], 318.15 K, w2 = 0.00489 | 1143.46 | – | –
[1], 318.15 K, w2 = 0.00632 | 1143.52 | – | –
[1], 318.15 K, w2 = 0.00706 | – | – | 45.4
[1], 318.15 K, w2 = 0.00783 | 1143.56 | – | –
[1], 318.15 K, w2 = 0.00859 | – | – | 45.6
[1], 318.15 K, w2 = 0.00933 | 1143.61 | – | –
[1], 318.15 K, w2 = 0.01019 | – | – | 45.8
[1], 318.15 K, w2 = 0.01094 | 1143.65 | – | –
[1], 318.15 K, w2 = 0.01171 | – | – | 46
[1], 318.15 K, w2 = 0.01331 | – | – | 46.3
[1], 323.15 K, w2 = 0.00489 | 1140.24 | – | –
[1], 323.15 K, w2 = 0.00632 | 1140.3 | – | –
[1], 323.15 K, w2 = 0.00706 | – | – | 45.2
[1], 323.15 K, w2 = 0.00783 | 1140.34 | – | –
[1], 323.15 K, w2 = 0.00859 | – | – | 45.4
[1], 323.15 K, w2 = 0.00933 | 1140.39 | – | –
[1], 323.15 K, w2 = 0.01019 | – | – | 45.6
[1], 323.15 K, w2 = 0.01094 | 1140.45 | – | –
[1], 323.15 K, w2 = 0.01171 | – | – | 45.8
[1], 323.15 K, w2 = 0.01331 | – | – | 46
[1], 328.15 K, w2 = 0.00489 | 1137.09 | – | –
[1], 328.15 K, w2 = 0.00632 | 1137.16 | – | –
[1], 328.15 K, w2 = 0.00706 | – | – | 44.9
[1], 328.15 K, w2 = 0.00783 | 1137.21 | – | –
[1], 328.15 K, w2 = 0.00859 | – | – | 45.1
[1], 328.15 K, w2 = 0.00933 | 1137.27 | – | –
[1], 328.15 K, w2 = 0.01019 | – | – | 45.3
[1], 328.15 K, w2 = 0.01094 | 1137.32 | – | –
[1], 328.15 K, w2 = 0.01171 | – | – | 45.5
[1], 328.15 K, w2 = 0.01331 | – | – | 45.7
[1], 333.15 K, w2 = 0.00489 | 1133.97 | – | –
[1], 333.15 K, w2 = 0.00632 | 1134.03 | – | –
[1], 333.15 K, w2 = 0.00706 | – | – | 44.7
[1], 333.15 K, w2 = 0.00783 | 1134.08 | – | –
[1], 333.15 K, w2 = 0.00859 | – | – | 44.9
[1], 333.15 K, w2 = 0.00933 | 1134.13 | – | –
[1], 333.15 K, w2 = 0.01019 | – | – | 45.1
[1], 333.15 K, w2 = 0.01094 | 1134.18 | – | –
[1], 333.15 K, w2 = 0.01171 | – | – | 45.3
[1], 333.15 K, w2 = 0.01331 | – | – | 45.5
[1], 338.15 K, w2 = 0.00489 | 1130.83 | – | –
[1], 338.15 K, w2 = 0.00632 | 1130.9 | – | –
[1], 338.15 K, w2 = 0.00706 | – | – | 44.5
[1], 338.15 K, w2 = 0.00783 | 1130.95 | – | –
[1], 338.15 K, w2 = 0.00859 | – | – | 44.7
[1], 338.15 K, w2 = 0.00933 | 1131.01 | – | –
[1], 338.15 K, w2 = 0.01019 | – | – | 44.9
[1], 338.15 K, w2 = 0.01094 | 1131.07 | – | –
[1], 338.15 K, w2 = 0.01171 | – | – | 45.1
[1], 338.15 K, w2 = 0.01331 | – | – | 45.4
[2], 298.15 K, w2 = 0.00594 | – | 1.5125 | –
[2], 298.15 K, w2 = 0.00746 | – | 1.5122 | –
[2], 298.15 K, w2 = 0.00898 | – | 1.5117 | –
[2], 298.15 K, w2 = 0.0105 | – | 1.5112 | –
[2], 298.15 K, w2 = 0.01211 | – | 1.5108 | –
[2], 303.15 K, w2 = 0.00594 | – | 1.5117 | –
[2], 303.15 K, w2 = 0.00746 | – | 1.5113 | –
[2], 303.15 K, w2 = 0.00898 | – | 1.5109 | –
[2], 303.15 K, w2 = 0.0105 | – | 1.5104 | –
[2], 303.15 K, w2 = 0.01211 | – | 1.5099 | –
[2], 308.15 K, w2 = 0.00594 | – | 1.5109 | –
[2], 308.15 K, w2 = 0.00746 | – | 1.5104 | –
[2], 308.15 K, w2 = 0.00898 | – | 1.5101 | –
[2], 308.15 K, w2 = 0.0105 | – | 1.5096 | –
[2], 308.15 K, w2 = 0.01211 | – | 1.5091 | –
[2], 313.15 K, w2 = 0.00594 | – | 1.5099 | –
[2], 313.15 K, w2 = 0.00746 | – | 1.5094 | –
[2], 313.15 K, w2 = 0.00898 | – | 1.5091 | –
[2], 313.15 K, w2 = 0.0105 | – | 1.5087 | –
[2], 313.15 K, w2 = 0.01211 | – | 1.5083 | –
[2], 318.15 K, w2 = 0.00594 | – | 1.5089 | –
[2], 318.15 K, w2 = 0.00746 | – | 1.5084 | –
[2], 318.15 K, w2 = 0.00898 | – | 1.5079 | –
[2], 318.15 K, w2 = 0.0105 | – | 1.5075 | –
[2], 318.15 K, w2 = 0.01211 | – | 1.5071 | –
[2], 323.15 K, w2 = 0.00594 | – | 1.5078 | –
[2], 323.15 K, w2 = 0.00746 | – | 1.5073 | –
[2], 323.15 K, w2 = 0.00898 | – | 1.5068 | –
[2], 323.15 K, w2 = 0.0105 | – | 1.5064 | –
[2], 323.15 K, w2 = 0.01211 | – | 1.5059 | –
[2], 328.15 K, w2 = 0.00594 | – | 1.5071 | –
[2], 328.15 K, w2 = 0.00746 | – | 1.5065 | –
[2], 328.15 K, w2 = 0.00898 | – | 1.5059 | –
[2], 328.15 K, w2 = 0.0105 | – | 1.5055 | –
[2], 328.15 K, w2 = 0.01211 | – | 1.5049 | –
[2], 333.15 K, w2 = 0.00594 | – | 1.5059 | –
[2], 333.15 K, w2 = 0.00746 | – | 1.5055 | –
[2], 333.15 K, w2 = 0.00898 | – | 1.5049 | –
[2], 333.15 K, w2 = 0.0105 | – | 1.5045 | –
[2], 333.15 K, w2 = 0.01211 | – | 1.5041 | –
[2], 338.15 K, w2 = 0.00594 | – | 1.5051 | –
[2], 338.15 K, w2 = 0.00746 | – | 1.5045 | –
[2], 338.15 K, w2 = 0.00898 | – | 1.5041 | –
[2], 338.15 K, w2 = 0.0105 | – | 1.5036 | –
[2], 338.15 K, w2 = 0.01211 | – | 1.5032 | –
